Publication PMC10928712, “High Target Homology Does Not Guarantee Inhibition: Aminothiazoles Emerge as Inhibitors of Plasmodium falciparum” (ACS Infectious Diseases, 2024)
Values joined by “and” are separate entries in the source; they are usually repeats but may differ in a detail not shown here. Equal values may be shown once. Read-outs that look alike come from different tables or passages of the source.

Columns and labels:
P. falciparum 3D7 = experiment: Method III growth inhibition assay (HRP2-ELISA, 3 days), 3D7; assay type: cell-based, Plasmodium falciparum
P. falciparum Dd2 = experiment: Method III growth inhibition assay (HRP2-ELISA, 3 days), Dd2; assay type: cell-based, Plasmodium falciparum
[1] = 3D7, method III (HRP2 assay), drc package of R, read-out: IC50 P. falciparum 3D7 (method III)
[2] = Plasmodium falciparum, 3D7, 3D7, method III (HRP2 assay), drc package of R, read-out: IC50 P. falciparum 3D7 (method III)
[3] = Plasmodium falciparum, 3D7, table of compounds as SMILES with biological activity, strain not given, values match 3D7 method III, read-out: IC50
[4] = Plasmodium falciparum, DD2, chloroquine-resistant Dd2, method III
[5] = table of compounds as SMILES with biological activity, strain not given, values match 3D7 method III, read-out: IC50
[6] = chloroquine-resistant Dd2, method III

Molecule | IC50 (P. falciparum 3D7; [1]) | IC50 (P. falciparum 3D7; [2]) [µM] | IC50 (P. falciparum 3D7; [3]) [µM] | IC50 (P. falciparum Dd2; [4]) [µM] | IC50 (P. falciparum 3D7; [5]) [µM] | IC50 (P. falciparum Dd2; [6]) [µM]
OCc1cn(Cc2ccc(Cl)c(Cl)c2)c2cc(F)ccc12 [compound 27, (1-(3,4-Dichlorobenzyl)-6-fluoro-1H-indol-3-yl)methanol] | 9 ± 2 µM | < 10 | 8.9 | 10 ± 5 |  | 
Cc1nc(N)sc1-c1csc(Nc2cccc(C(F)(F)F)c2)n1 [compound 45] |  | 3 | 2.5 | 5 |  | 
OCc1cn(Cc2ccccc2)c2cccc(F)c12 [compound 25, (1-Benzyl-4-fluoro-1H-indol-3-yl)methanol] |  | 12 ± 2 | 11.9 | 9 |  | 
2′,4′-Dimethyl-N-(4-(trifluoromethyl)phenyl)-[5,5′-bithiazol]-2-amine [compound 41] | ~10 µM and 10 µM |  |  |  | 9.5 | 5
OCc1cn(Cc2cccc(Cl)c2)c2cccc(F)c12 [compound 24, (1-(3-Chlorobenzyl)-4-fluoro-1H-indol-3-yl)methanol] |  | 12 ± 1 |  | 10 ± 1 |  | 
Clc1ccc(Cn2ccc3ccccc32)cc1Cl [compound 28, 1-(3,4-Dichlorobenzyl)-1H-indole] | 8.1 µM | ~8 |  | 18 ± 7 |  | 
CON=C(Cc1ccc(Cl)cc1)c1ccc(O)cc1O [compound 11, (E)-2-(4-Chlorophenyl)-1-(2,4-dihydroxyphenyl)ethan-1-one o-Methyl Oxime] |  | 28 ± 9 |  | 19 ± 3 |  | 
N#Cc1ccc2c(CO)cn(Cc3ccc(Cl)c(Cl)c3)c2c1 [compound 17] |  | 44 ± 19 | 43.8 | 44 ± 9 |  | 
ON=C(Cc1ccc(Cl)cc1)c1ccc(O)nc1 [8Z, 2-(4-Chlorophenyl)-1-(6-hydroxypyridin-3-yl)ethan-1-one oxime] | > 28 µM |  |  |  |  | > 28
COc1cccc2c1c(CO)cn2Cc1cccc(Cl)c1 [compound 22, (1-(3-Chlorobenzyl)-4-methoxy-1H-indol-3-yl)methanol] |  | 16 ± 3 | 13.8 | 14 ± 4 | 15.6 | 
Oc1ccc(-c2csc(Nc3cccc(C(F)(F)F)c3)n2)c(O)c1 [compound 37] |  | 23 ± 1 |  | 19 ± 2 |  | 
COc1ccc(C(Cc2ccc(Cl)cc2)=NO)cn1 [7Z, 2-(4-Chlorophenyl)-1-(6-methoxypyridin-3-yl)ethan-1-one oxime] | > 111 µM |  |  |  |  | > 111
N-(3-Chloro-2-methylphenyl)-5-(pyridin-2-yl)thiazol-2-amine [compound 44] | 3 µM |  |  |  | 2.8 | 2 ± 1
OCc1cn(Cc2ccccc2)c2ccc(Br)cc12 [compound 30, (1-Benzyl-5-bromo-1H-indol-3-yl)methanol] | 6 ± 1 µM | < 10 | 6.1 | 5 ± 3 |  | 
COc1ccc(C(Cc2ccc(Cl)cc2)=NO)cn1 [7E, 2-(4-Chlorophenyl)-1-(6-methoxypyridin-3-yl)ethan-1-one oxime] | 44 ± 10 µM |  | 43.6 |  |  | > 55
N^2-(3-Methoxyphenyl)-4′-methyl-[5,5′-bithiazole]-2,2′-diamine [compound 39] | 18 µM |  |  |  | 17.9 | 
Cc1nc(N)sc1-c1csc(Nc2ccccc2C(F)(F)F)n1 [compound 35] |  | 43 ± 2 |  | 48 ± 12 |  | 
OCCc1cn(Cc2ccc(Cl)c(Cl)c2)c2ccccc12 [compound 19, 2-(1-(3,4-Dichlorobenzyl)-1H-indol-3-yl)ethan-1-ol] |  | 29 ± 1 | 28.9 | 12 ± 3 |  | 

Molecule | IC50 (P. falciparum 3D7; [1]) | IC50 (P. falciparum 3D7; [2]) [µM] | IC50 (P. falciparum 3D7; [3]) [µM] | IC50 (P. falciparum Dd2; [4]) [µM] | IC50 (P. falciparum 3D7; [5]) [µM] | IC50 (P. falciparum Dd2; [6]) [µM]
O=[N+]([O-])c1ccc2c(c1)c(CO)cn2Cc1ccc(Cl)c(Cl)c1 [compound 29, (1-(3,4-Dichlorobenzyl)-5-nitro-1H-indol-3-yl)methanol] | 7 µM | < 10 | 7.2 | 4 ± 1 |  | 
Cc1ccc(C)c(Nc2nc(-c3ccccn3)cs2)c1 [compound 43, N-(2,5-Dimethylphenyl)-4-(pyridin-2-yl)thiazol-2-amine] |  | 4 ± 2 | 3.7 | 5 ± 1 |  | 
OCc1cn(Cc2ccc(Cl)c(Cl)c2)c2c(Cl)cccc12 [compound 23, (7-Chloro-1-(3,4-dichlorobenzyl)-1H-indol-3-yl)methanol] | 14 ± 1 µM | 13 |  | 36 ± 16 |  | 
OCc1cn(Cc2ccc(Cl)c(Cl)c2)c2ccc(F)cc12 [compound 32] | 5 ± 1 µM | < 10 | 5.3 | 8 ± 2 |  | 
N^2-(3-Chloro-2-methylphenyl)-4′-methyl-[5,5′-bithiazole]-2,2′-diamine [compound 40] | 16 ± 2 µM |  |  |  | 15.9 | 
COc1cccc2c1c(CO)cn2Cc1ccc(Cl)c(Cl)c1 [compound 31, (1-(3,4-Dichlorobenzyl)-4-methoxy-1H-indol-3-yl)methanol] |  | 6 ± 2 | 5.5 | 5 ± 2 |  | 
OCc1cn(Cc2ccc(Cl)cc2)c2ccccc12 [compound 20] |  | 28 ± 14 | 27.2 | 22 ± 5 |  | 
OCc1cn(Cc2ccc(Cl)c(Cl)c2)c2ncccc12 [compound 14, (1-(3,4-Dichlorobenzyl)-1H-pyrrolo[2,3-b]pyridin-3-yl)methanol] |  | > 111 |  | 91 ± 18 |  | 
Cc1cn(Cc2ccc(Cl)c(Cl)c2)c2ccccc12 [compound 26, 1-(3,4-Dichlorobenzyl)-3-methyl-1H-indole] | 10.2 µM | ~10 |  | 11 ± 5 |  | 
OCc1nn(Cc2ccc(Cl)c(Cl)c2)c2ccccc12 [compound 18, (1-(3,4-Dichlorobenzyl)-1H-indazol-3-yl)methanol] |  | 34 | 33.9 | 70 ± 21 |  | 
ON=C(Cc1ccc(Cl)cc1)c1ccc(O)nc1 [8E, 2-(4-Chlorophenyl)-1-(6-hydroxypyridin-3-yl)ethan-1-one oxime] | > 111 µM |  |  |  |  | > 111
5-(Pyridin-4-yl)-N-(4-(trifluoromethyl)phenyl)thiazol-2-amine [compound 36] | 34 ± 2 µM |  |  |  | 34.2 | 
OCc1cn(-c2ccc(Cl)c(Cl)c2)c2ccccc12 [compound 15, (1-(3,4-Dichlorophenyl)-1H-indol-3-yl)methanol] |  | > 56 | 55.5 | 54 ± 6 |  | 
Cc1ccc(Nc2nc(-c3ccc(O)c(O)c3)cs2)cc1C [compound 42, 4-(2-((3,4-Dimethylphenyl)amino)thiazol-4-yl)benzene-1,2-diol] |  | 4 ± 1 | 4.4 | 7 ± 1 |  | 
COc1ccc2c(c1)c(CO)cn2Cc1ccc(Cl)c(Cl)c1 [compound 21, (1-(3,4-Dichlorobenzyl)-5-methoxy-1H-indol-3-yl)methanol] |  | 19 ± 1 | 18.5 | 54 ± 6 |  | 
4-(2-((4-(Trifluoromethyl)phenyl)amino)thiazol-5-yl)benzene-1,3-diol [compound 38] | 22 ± 6 µM |  |  |  | 22.1 | 
COc1ccc(C(Cc2ccc(Cl)cc2)=NO)c(O)c1 [compound 9] |  | 47 ± 15 | 46.8 | 24 ± 6 |  | 
COc1cccc2c(CO)cn(Cc3ccc(Cl)c(Cl)c3)c12 [compound 16] |  | > 56 | 55.5 | 48 ± 13 |  | 
